Values after ≈ are worked out from the molar mass of the structure shown.
How the values were obtained:
[1] = system: Pseudomonas aeruginosa; test: Antimicrobial activity against AmpC overproducing Pseudomonas aeruginosa isolate Pae-beta-23 with PDC-5 variant by Etest; format: functional
[2] = system: Pseudomonas aeruginosa; test: Antimicrobial activity against AmpC overproducing Pseudomonas aeruginosa isolate Pae-beta-07 with PDC-2 variant by Etest; format: functional
[3] = system: Pseudomonas aeruginosa; test: Antimicrobial activity against AmpC overproducing Pseudomonas aeruginosa isolate Pae-beta-18 with PDC-3 variant by Etest; format: functional
[4] = system: Pseudomonas aeruginosa; test: Antimicrobial activity against AmpC overproducing Pseudomonas aeruginosa isolate Pae-beta-13 with PDC-2 variant by Etest; format: functional
[5] = system: Pseudomonas aeruginosa; test: Antimicrobial activity against AmpC overproducing Pseudomonas aeruginosa isolate Pae-beta-24 with PDC-5 variant by Etest; format: functional
[6] = system: Pseudomonas aeruginosa; test: microbe, parasite or virus in culture; format: functional; conditions: KG2505a
[7] = system: Pseudomonas aeruginosa; test: microbe, parasite or virus in culture; format: functional; conditions: KG2505a; remark: listed apart in the source
[8] = system: Pseudomonas aeruginosa; test: microbe, parasite or virus in culture; conditions: 12B
[9] = system: Pseudomonas aeruginosa; test: Antimicrobial activity against AmpC overproducing Pseudomonas aeruginosa isolate Pae-beta-27 with PDC-7 variant by Etest; format: functional
[10] = system: Pseudomonas aeruginosa; test: Antimicrobial activity against Pseudomonas aeruginosa isolate Pae-beta-19 with PDC-3 variant by Etest; format: functional
[11] = system: Pseudomonas aeruginosa; test: Antimicrobial activity against Pseudomonas aeruginosa isolate Pae-beta-29 with PDC-8 variant by Etest; format: functional
[12] = system: Pseudomonas aeruginosa; test: Antimicrobial activity against AmpC overproducing Pseudomonas aeruginosa isolate Pae-beta-25 with PDC-6 variant by Etest; format: functional
[13] = system: Pseudomonas aeruginosa; test: Antimicrobial activity against AmpC overproducing Pseudomonas aeruginosa isolate Pae-beta-14 with PDC-2 variant by Etest; format: functional
[14] = system: Pseudomonas aeruginosa; test: microbe, parasite or virus in culture; conditions: PAO1
[15] = system: Pseudomonas aeruginosa; test: Antimicrobial activity against Pseudomonas aeruginosa isolate Pae-beta-05 with PDC-2 variant by Etest; format: functional
[16] = system: Pseudomonas aeruginosa; test: Antimicrobial activity against Pseudomonas aeruginosa isolate Pae-beta-31 with PDC-9 variant by Etest; format: functional
[17] = system: Pseudomonas aeruginosa; test: microbe, parasite or virus in culture; format: functional; conditions: KG2505a; remark: listed apart in the source
[18] = system: Pseudomonas aeruginosa; test: Antimicrobial activity against Pseudomonas aeruginosa isolate Pae-beta-30 with PDC-8 variant by Etest; format: functional
[19] = system: Pseudomonas aeruginosa; test: Antimicrobial activity against AmpC overproducing Pseudomonas aeruginosa isolate Pae-beta-28 with PDC-7 variant by Etest; format: functional
[20] = system: Pseudomonas aeruginosa; test: Antimicrobial activity against AmpC overproducing Pseudomonas aeruginosa isolate Pae-beta-22 with PDC-4 variant by Etest; format: functional
[21] = system: Pseudomonas aeruginosa; test: Antimicrobial activity against AmpC overproducing Pseudomonas aeruginosa isolate Pae-beta-12 with PDC-2 variant by Etest; format: functional
[22] = system: Pseudomonas aeruginosa; test: Antimicrobial activity against AmpC overproducing Pseudomonas aeruginosa isolate Pae-beta-15 with PDC-2 variant by Etest; format: functional
[23] = system: Pseudomonas aeruginosa; test: Antimicrobial activity against AmpC overproducing Pseudomonas aeruginosa isolate Pae-beta-21 with PDC-4 variant by Etest; format: functional
[24] = system: Pseudomonas aeruginosa; test: Antimicrobial activity against AmpC overproducing Pseudomonas aeruginosa isolate Pae-beta-16 with PDC-3 variant by Etest; format: functional
[25] = system: Pseudomonas aeruginosa; test: microbe, parasite or virus in culture; conditions: 12B; remark: listed apart in the source
[26] = system: Pseudomonas aeruginosa; test: Antimicrobial activity against AmpC overproducing Pseudomonas aeruginosa isolate Pae-beta-10 with PDC-2 variant by Etest; format: functional
[27] = system: Pseudomonas aeruginosa; test: Antimicrobial activity against AmpC overproducing Pseudomonas aeruginosa isolate Pae-beta-17 with PDC-3 variant by Etest; format: functional
[28] = system: Pseudomonas aeruginosa; test: Antimicrobial activity against AmpC overproducing Pseudomonas aeruginosa isolate Pae-beta-03 with PDC-2 variant by Etest; format: functional
[29] = system: Pseudomonas aeruginosa; test: Antimicrobial activity against AmpC overproducing Pseudomonas aeruginosa isolate Pae-beta-09 with PDC-2 variant by Etest; format: functional
[30] = system: Pseudomonas aeruginosa; test: Antimicrobial activity against AmpC overproducing Pseudomonas aeruginosa isolate Pae-beta-04 with PDC-2 variant by Etest; format: functional
[31] = system: Pseudomonas aeruginosa; test: Antimicrobial activity against AmpC overproducing Pseudomonas aeruginosa isolate Pae-beta-20 with PDC-4 variant by Etest; format: functional
[32] = system: Pseudomonas aeruginosa; test: Antimicrobial activity against AmpC overproducing Pseudomonas aeruginosa isolate Pae-beta-08 with PDC-2 variant by Etest; format: functional
[33] = system: Pseudomonas aeruginosa; test: microbe, parasite or virus in culture; conditions: 12B; remark: listed apart in the source
[34] = system: Pseudomonas aeruginosa; test: microbe, parasite or virus in culture; format: functional; conditions: KG2505a; remark: listed apart in the source
[35] = system: Pseudomonas aeruginosa; test: Antimicrobial activity against AmpC overproducing Pseudomonas aeruginosa isolate Pae-beta-11 with PDC-2 variant by Etest; format: functional
[36] = system: Pseudomonas aeruginosa; test: Antimicrobial activity against AmpC overproducing Pseudomonas aeruginosa isolate Pae-beta-32 with PDC-10 variant by Etest; format: functional
[37] = system: Pseudomonas aeruginosa; test: microbe, parasite or virus in culture; format: functional; conditions: 12B
[38] = system: Pseudomonas aeruginosa; test: Antimicrobial activity against Pseudomonas aeruginosa isolate Pae-beta-02 with PDC-1 variant by Etest; format: functional
[39] = system: Pseudomonas aeruginosa; test: Antimicrobial activity against Pseudomonas aeruginosa isolate Pae-beta-01 with PDC-1 variant by Etest; format: functional
[40] = system: Pseudomonas aeruginosa; test: microbe, parasite or virus in culture; conditions: isolate Pae-beta-26
[41] = system: Pseudomonas aeruginosa; test: microbe, parasite or virus in culture; format: functional; conditions: KG2505a; remark: listed apart in the source
[42] = system: Pseudomonas aeruginosa; test: Antimicrobial activity against AmpC overproducing Pseudomonas aeruginosa isolate Pae-beta-06 with PDC-2 variant by Etest; format: functional
[43] = system: Pseudomonas aeruginosa; test: microbe, parasite or virus in culture; conditions: 12B; remark: listed apart in the source

CC(C)(O/N=C(\C(=O)N[C@@H]1C(=O)N2C(C(=O)[O-])=C(C[n+]3ccccc3)CS[C@H]12)c1csc(N)n1)C(=O)O [CEFTAZIDIME]
MIC [1]: 64 µg/mL (≈ 117 µM) | MIC [2]: 16 µg/mL (≈ 29.3 µM) | MIC [3]: 128 µg/mL (≈ 234 µM) | MIC [4]: 4 µg/mL (≈ 7.32 µM) | MIC [5]: 64 µg/mL (≈ 117 µM) | MIC [6]: 32 µg/mL (≈ 58.5 µM) | MIC [7]: 32 µg/mL (≈ 58.5 µM) | MIC [8]: 32 µg/mL (≈ 58.5 µM) | MIC [9]: 16 µg/mL (≈ 29.3 µM) | MIC [10]: 8 µg/mL (≈ 14.6 µM) | MIC [11]: 8 µg/mL (≈ 14.6 µM) | MIC [12]: 32 µg/mL (≈ 58.5 µM) | MIC [13]: 16 µg/mL (≈ 29.3 µM) | MIC [14]: 1 µg/mL (≈ 1.83 µM) | MIC [15]: 32 µg/mL (≈ 58.5 µM) | MIC [16]: 32 µg/mL (≈ 58.5 µM) | MIC [17]: 16 µg/mL (≈ 29.3 µM) | MIC [18]: 8 µg/mL (≈ 14.6 µM) | MIC [19]: 16 µg/mL (≈ 29.3 µM) | MIC [20]: 16 µg/mL (≈ 29.3 µM) | MIC [21]: 16 µg/mL (≈ 29.3 µM) | MIC [22]: 32 µg/mL (≈ 58.5 µM) | MIC [23]: 32 µg/mL (≈ 58.5 µM) | MIC [24]: 32 µg/mL (≈ 58.5 µM) | MIC [25]: 64 µg/mL (≈ 117 µM) | MIC [26]: 16 µg/mL (≈ 29.3 µM) | MIC [27]: 64 µg/mL (≈ 117 µM) | MIC [28]: 16 µg/mL (≈ 29.3 µM) | MIC [29]: 16 µg/mL (≈ 29.3 µM) | MIC [30]: 32 µg/mL (≈ 58.5 µM) | MIC [31]: 8 µg/mL (≈ 14.6 µM) | MIC [32]: 16 µg/mL (≈ 29.3 µM) | MIC [33]: 32 µg/mL (≈ 58.5 µM) | MIC [34]: 16 µg/mL (≈ 29.3 µM) | MIC [35]: 16 µg/mL (≈ 29.3 µM) | MIC [36]: 32 µg/mL (≈ 58.5 µM) | MIC [37]: 8 µg/mL (≈ 14.6 µM) | MIC [38]: 8 µg/mL (≈ 14.6 µM) | MIC [39]: 8 µg/mL (≈ 14.6 µM) | MIC [40]: 32 µg/mL (≈ 58.5 µM) | MIC [41]: 4 µg/mL (≈ 7.32 µM) | MIC [42]: 16 µg/mL (≈ 29.3 µM) | MIC [43]: 32 µg/mL (≈ 58.5 µM)

C[C@@H](O)[C@H]1C(=O)N2C(C(=O)O)=C(SCCNC=N)C[C@H]12 [IMIPENEM ANHYDROUS]
MIC [1]: 32 µg/mL (≈ 107 µM) | MIC [2]: 16 µg/mL (≈ 53.4 µM) | MIC [3]: 64 µg/mL (≈ 214 µM) | MIC [4]: 16 µg/mL (≈ 53.4 µM) | MIC [5]: 32 µg/mL (≈ 107 µM) | MIC [9]: 32 µg/mL (≈ 107 µM) | MIC [11]: 16 µg/mL (≈ 53.4 µM) | MIC [12]: 8 µg/mL (≈ 26.7 µM) | MIC [13]: 16 µg/mL (≈ 53.4 µM) | MIC [15]: 16 µg/mL (≈ 53.4 µM) | MIC [16]: 16 µg/mL (≈ 53.4 µM) | MIC [18]: 8 µg/mL (≈ 26.7 µM) | MIC [19]: 16 µg/mL (≈ 53.4 µM) | MIC [20]: 8 µg/mL (≈ 26.7 µM) | MIC [21]: 16 µg/mL (≈ 53.4 µM) | MIC [22]: 16 µg/mL (≈ 53.4 µM) | MIC [23]: 16 µg/mL (≈ 53.4 µM) | MIC [24]: 32 µg/mL (≈ 107 µM) | MIC [26]: 16 µg/mL (≈ 53.4 µM) | MIC [27]: 32 µg/mL (≈ 107 µM) | MIC [28]: 16 µg/mL (≈ 53.4 µM) | MIC [29]: 16 µg/mL (≈ 53.4 µM) | MIC [30]: 16 µg/mL (≈ 53.4 µM) | MIC [31]: 16 µg/mL (≈ 53.4 µM) | MIC [32]: 16 µg/mL (≈ 53.4 µM) | MIC [35]: 16 µg/mL (≈ 53.4 µM) | MIC [36]: 64 µg/mL (≈ 214 µM) | MIC [42]: 16 µg/mL (≈ 53.4 µM)

C[C@@H](O)[C@H]1C(=O)N2C(C(=O)O)=C(S[C@@H]3CN[C@H](C(=O)N(C)C)C3)[C@H](C)[C@H]12 [MEROPENEM]
MIC [6]: 0.25 µg/mL (≈ 0.652 µM) | MIC [7]: 0.25 µg/mL (≈ 0.652 µM) | MIC [8]: 2 µg/mL (≈ 5.22 µM) | MIC [17]: 0.25 µg/mL (≈ 0.652 µM) | MIC [25]: 2 µg/mL (≈ 5.22 µM) | MIC [33]: 2 µg/mL (≈ 5.22 µM) | MIC [34]: 0.25 µg/mL (≈ 0.652 µM) | MIC [37]: 1 µg/mL (≈ 2.61 µM) | MIC [41]: 0.12 µg/mL (≈ 0.313 µM) | MIC [43]: 2 µg/mL (≈ 5.22 µM)

CO/N=C(\C(=O)N[C@@H]1C(=O)N2C(C(=O)[O-])=C(C[N+]3(C)CCCC3)CS[C@H]12)c1csc(N)n1
MIC [1]: 32 µg/mL (≈ 66.6 µM) | MIC [2]: 32 µg/mL (≈ 66.6 µM) | MIC [3]: 128 µg/mL (≈ 266 µM) | MIC [4]: 16 µg/mL (≈ 33.3 µM) | MIC [5]: 64 µg/mL (≈ 133 µM) | MIC [6]: 4 µg/mL (≈ 8.32 µM) | MIC [7]: 4 µg/mL (≈ 8.32 µM) | MIC [8]: 32 µg/mL (≈ 66.6 µM) | MIC [9]: 64 µg/mL (≈ 133 µM) | MIC [12]: 32 µg/mL (≈ 66.6 µM) | MIC [13]: 32 µg/mL (≈ 66.6 µM) | MIC [14]: 2 µg/mL (≈ 4.16 µM) | MIC [15]: 16 µg/mL (≈ 33.3 µM) | MIC [16]: 32 µg/mL (≈ 66.6 µM) | MIC [17]: 16 µg/mL (≈ 33.3 µM) | MIC [18]: 8 µg/mL (≈ 16.6 µM) | MIC [19]: 16 µg/mL (≈ 33.3 µM) | MIC [20]: 16 µg/mL (≈ 33.3 µM) | MIC [21]: 32 µg/mL (≈ 66.6 µM) | MIC [22]: 128 µg/mL (≈ 266 µM) | MIC [23]: 32 µg/mL (≈ 66.6 µM) | MIC [24]: 32 µg/mL (≈ 66.6 µM) | MIC [25]: 32 µg/mL (≈ 66.6 µM) | MIC [26]: 32 µg/mL (≈ 66.6 µM) | MIC [27]: 32 µg/mL (≈ 66.6 µM) | MIC [28]: 64 µg/mL (≈ 133 µM) | MIC [29]: 32 µg/mL (≈ 66.6 µM) | MIC [30]: 32 µg/mL (≈ 66.6 µM) | MIC [31]: 16 µg/mL (≈ 33.3 µM) | MIC [32]: 32 µg/mL (≈ 66.6 µM) | MIC [34]: 16 µg/mL (≈ 33.3 µM) | MIC [35]: 32 µg/mL (≈ 66.6 µM) | MIC [36]: 32 µg/mL (≈ 66.6 µM) | MIC [37]: 4 µg/mL (≈ 8.32 µM) | MIC [41]: 1 µg/mL (≈ 2.08 µM) | MIC [42]: 32 µg/mL (≈ 66.6 µM)
